From ChEMBL document CHEMBL1126105, “Dihydroxynitrobenzaldehydes and hydroxymethoxynitrobenzaldehydes: synthesis and biological activity as catechol-O-methyltransferase inhibitors” (J Med Chem, 1992)

How the values were obtained:
[1] = target: T1, Catechol O-methyltransferase (Sus scrofa, UniProt Q99028); assay: In vitro inhibition of Catechol-O-methyltransferase (COMT) from isolated partially purified pig liver enzyme
T1 sequence (Q99028 whole entry): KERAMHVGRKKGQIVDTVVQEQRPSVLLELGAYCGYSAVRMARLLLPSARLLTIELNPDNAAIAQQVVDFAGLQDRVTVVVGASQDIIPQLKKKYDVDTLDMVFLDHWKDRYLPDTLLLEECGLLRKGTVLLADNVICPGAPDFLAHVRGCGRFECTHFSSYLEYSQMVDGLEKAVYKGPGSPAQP

[2] = target: T2, Catechol O-methyltransferase (Sus scrofa) (UniProt Q99028); assay: Compound was evaluated for reversible inhibition of Catechol O-methyltransferase with variable AdoMet and saturating catechol as substrate (uncompetitive inhibition)
T2 sequence (whole entry): T1 sequence (Q99028 whole entry)

[3] = target: T2, Catechol O-methyltransferase (Sus scrofa)
Description: (§1) Compound was evaluated for reversible inhibition of Catechol O-methyltransferase with saturating AdoMet and variable catechol as substrate (mixed inhibition)

[4] = target: T2, Catechol O-methyltransferase (Sus scrofa); assay: Compound was evaluated for reversible inhibition of COMT with saturating AdoMet and variable catechol as substrate (mixed inhibition)
[5] = target: T2, Catechol O-methyltransferase (Sus scrofa); remark: listed apart in the source
Description: as §1

[6] = target: T2, Catechol O-methyltransferase (Sus scrofa); remark: listed apart in the source
[7] = target: T1, Catechol O-methyltransferase; assay: Compound was evaluated for reversible inhibition of Catechol O-methyltransferase with saturating AdoMet and variable catechol as substrate (Non-competitive inhibition)
[8] = target: T1, Catechol O-methyltransferase; assay: Compound was evaluated for reversible inhibition of Catechol O-methyltransferase with variable AdoMet and saturating catechol as substrate (uncompetitive inhibition)

Question: For `O=Cc1ccc(O)c(O)c1[N+](=O)[O-]`, which IC50 [1] is on record?
Answer: The IC50 was 1.5 µM.

Question: And the KIs [2]?
Answer: The KIs was 678 nM.

Question: And the KIs [3]?
Answer: Its KIs is 0.497 µM.

Question: What about the KII [4] of the same molecule?
Answer: The KII was 168 nM.

Question: Which IC50 [1] does the source give for `O=Cc1ccc([N+](=O)[O-])c(O)c1O` here?
Answer: The IC50 was 1.5 µM.

Question: What about the KII [5] of the same molecule?
Answer: The KII was 145 nM.

Question: And the KIs [2]?
Answer: The KIs was 538 nM.

Question: What about the KIs [3] of the same molecule?
Answer: The KIs was 0.478 µM.

Question: `O=Cc1cc(O)c(O)cc1[N+](=O)[O-]` was tested. Which IC50 [1] did it give?
Answer: The IC50 was 8.5 µM.

Question: What about the KII [5] of the same molecule?
Answer: The KII was 921 nM.

Question: What about the KIs [3] of the same molecule?
Answer: Its KIs is 2.69 µM.

Question: Which results are given for `O=Cc1cc(O)c(O)c([N+](=O)[O-])c1` [3,4-DIHYDROXY-5-NITROBENZALDEHYDE]?
Answer: IC50 [1]: 2 µM; KII [5]: 138 nM; KIs [3]: 0.816 µM; KII [6]: 1.38e-07 µM

Question: Which results are given for `O=Cc1cc([N+](=O)[O-])cc(O)c1O`?
Answer: IC50 [1]: 2.1 µM; KII [5]: 231 nM; KIs [2]: 7770 nM; KIs [3]: 1.2 µM

Question: What does the source list for `COc1c(O)cc(C=O)cc1[N+](=O)[O-]`?
Answer: IC50 [1]: 34 µM; Ki [7]: 17.2 µM; Ki [8]: 13.5 µM

Question: With `O=Cc1c([N+](=O)[O-])ccc(O)c1O` as the molecule, how does the IC50 [1] read?
Answer: Its IC50 is 10 µM.

Question: And the KII [5]?
Answer: The KII was 909 nM.

Question: What about the KIs [3] of the same molecule?
Answer: Its KIs is 4.77 µM.
